{
  "source": "patent US20250352520A1",
  "about": "“USE OF DEXPRAMIPEXOLE FOR THE TREATMENT OF EOSINOPHILIC COPD” (Areteia Therapeutics, Inc., priority 2024, published 2025)",
  "details": "Week 12; <50% AEC reduction at Week 16",
  "data": [
    {"smiles": "CCCN[C@@H]1CCc2nc(N)sc2C1", "note": "[Dexpramipexole, (6R)-2-amino-4,5,6,7-tetrahydro-6-(propylamino)benzothiazole]", "values": [
      {"measurement": "Pre-BD FEF25-75 % change from baseline, Max", "result": 47, "unit": "%"},
      {"measurement": "Pre-BD FEF25-75 % change from baseline, Mean ± SD", "result": "23.9 ± 28.49", "unit": "%"},
      {"measurement": "Pre-BD FEF25-75 % change from baseline, Median", "result": 30.3, "unit": "%"},
      {"measurement": "Pre-BD FEF25-75 % change from baseline, Min", "result": "−12", "unit": "%"},
      {"measurement": "Pre-BD FEF25-75 % change from baseline, Q1", "result": 1, "unit": "%"},
      {"measurement": "Pre-BD FEF25-75 % change from baseline, Q3", "result": 47, "unit": "%"},
      {"measurement": "Pre-BD FEF25-75 Observed, Max", "result": 2050, "unit": "mL/s"},
      {"measurement": "Pre-BD FEF25-75 Observed, Mean ± SD", "result": "857.5 ± 805.29", "unit": "mL/s"},
      {"measurement": "Pre-BD FEF25-75 Observed, Median", "result": 515.0, "unit": "mL/s"},
      {"measurement": "Pre-BD FEF25-75 Observed, Min", "result": 350, "unit": "mL/s"},
      {"measurement": "Pre-BD FEF25-75 Observed, Q1", "result": 370, "unit": "mL/s"},
      {"measurement": "Pre-BD FEF25-75 Observed, Q3", "result": 1345, "unit": "mL/s"},
      {"measurement": "Pre-BD FEF25-75 change from baseline, Max", "result": 660, "unit": "mL/s"},
      {"measurement": "Pre-BD FEF25-75 change from baseline, Mean ± SD", "result": "182.5 ± 329.18", "unit": "mL/s"},
      {"measurement": "Pre-BD FEF25-75 change from baseline, Median", "result": 80.0, "unit": "mL/s"},
      {"measurement": "Pre-BD FEF25-75 change from baseline, Min", "result": -90, "unit": "mL/s"},
      {"measurement": "Pre-BD FEF25-75 change from baseline, Q1", "result": -20, "unit": "mL/s"},
      {"measurement": "Pre-BD FEF25-75 change from baseline, Q3", "result": 385, "unit": "mL/s"},
      {"measurement": "Pre-BD FEV1 % change from baseline, Max", "result": 41, "unit": "%"},
      {"measurement": "Pre-BD FEV1 % change from baseline, Mean ± SD", "result": "10.1 ± 21.78", "unit": "%"},
      {"measurement": "Pre-BD FEV1 % change from baseline, Median", "result": 4.2, "unit": "%"},
      {"measurement": "Pre-BD FEV1 % change from baseline, Min", "result": "−9", "unit": "%"},
      {"measurement": "Pre-BD FEV1 % change from baseline, Q1", "result": "−3", "unit": "%"},
      {"measurement": "Pre-BD FEV1 % change from baseline, Q3", "result": 23, "unit": "%"},
      {"measurement": "Pre-BD FEV1 Observed, Max", "result": 2940, "unit": "mL"},
      {"measurement": "Pre-BD FEV1 Observed, Mean ± SD", "result": "1672.5 ± 886.84", "unit": "mL"},
      {"measurement": "Pre-BD FEV1 Observed, Median", "result": 1440.0, "unit": "mL"},
      {"measurement": "Pre-BD FEV1 Observed, Min", "result": 870, "unit": "mL"},
      {"measurement": "Pre-BD FEV1 Observed, Q1", "result": 1145, "unit": "mL"},
      {"measurement": "Pre-BD FEV1 Observed, Q3", "result": 2200, "unit": "mL"},
      {"measurement": "Pre-BD FEV1 change from baseline, Max", "result": 860, "unit": "mL"},
      {"measurement": "Pre-BD FEV1 change from baseline, Mean ± SD", "result": "200.0 ± 449.52", "unit": "mL"},
      {"measurement": "Pre-BD FEV1 change from baseline, Median", "result": 45.0, "unit": "mL"},
      {"measurement": "Pre-BD FEV1 change from baseline, Min", "result": -150, "unit": "mL"},
      {"measurement": "Pre-BD FEV1 change from baseline, Q1", "result": -55, "unit": "mL"},
      {"measurement": "Pre-BD FEV1 change from baseline, Q3", "result": 455, "unit": "mL"},
      {"measurement": "Pre-BD FVC % change from baseline, Max", "result": 10, "unit": "%"},
      {"measurement": "Pre-BD FVC % change from baseline, Mean ± SD", "result": "−3.1 ± 11.75", "unit": "%"},
      {"measurement": "Pre-BD FVC % change from baseline, Median", "result": "−2.9", "unit": "%"},
      {"measurement": "Pre-BD FVC % change from baseline, Min", "result": "−17", "unit": "%"},
      {"measurement": "Pre-BD FVC % change from baseline, Q1", "result": "−12", "unit": "%"},
      {"measurement": "Pre-BD FVC % change from baseline, Q3", "result": 6, "unit": "%"},
      {"measurement": "Pre-BD FVC Observed, Max", "result": 3990, "unit": "mL"},
      {"measurement": "Pre-BD FVC Observed, Mean ± SD", "result": "2942.5 ± 825.44", "unit": "mL"},
      {"measurement": "Pre-BD FVC Observed, Median", "result": 2830.0, "unit": "mL"},
      {"measurement": "Pre-BD FVC Observed, Min", "result": 2120, "unit": "mL"},
      {"measurement": "Pre-BD FVC Observed, Q1", "result": 2300, "unit": "mL"},
      {"measurement": "Pre-BD FVC Observed, Q3", "result": 3585, "unit": "mL"},
      {"measurement": "Pre-BD FVC change from baseline, Max", "result": 370, "unit": "mL"},
      {"measurement": "Pre-BD FVC change from baseline, Mean ± SD", "result": "-52.5 ± 345.68", "unit": "mL"},
      {"measurement": "Pre-BD FVC change from baseline, Median", "result": -75.0, "unit": "mL"},
      {"measurement": "Pre-BD FVC change from baseline, Min", "result": -430, "unit": "mL"},
      {"measurement": "Pre-BD FVC change from baseline, Q1", "result": -320, "unit": "mL"},
      {"measurement": "Pre-BD FVC change from baseline, Q3", "result": 215, "unit": "mL"},
      {"measurement": "Pre-BD Peak Flow % change from baseline, Max", "result": 478, "unit": "%"},
      {"measurement": "Pre-BD Peak Flow % change from baseline, Mean ± SD", "result": "121.7 ± 237.65", "unit": "%"},
      {"measurement": "Pre-BD Peak Flow % change from baseline, Median", "result": 12.2, "unit": "%"},
      {"measurement": "Pre-BD Peak Flow % change from baseline, Min", "result": "−15", "unit": "%"},
      {"measurement": "Pre-BD Peak Flow % change from baseline, Q1", "result": "−5", "unit": "%"},
      {"measurement": "Pre-BD Peak Flow % change from baseline, Q3", "result": 249, "unit": "%"},
      {"measurement": "Pre-BD Peak Flow Observed, Max", "result": 246, "unit": "L/min"},
      {"measurement": "Pre-BD Peak Flow Observed, Mean ± SD", "result": "204.8 ± 42.39", "unit": "L/min"},
      {"measurement": "Pre-BD Peak Flow Observed, Median", "result": 210.5, "unit": "L/min"},
      {"measurement": "Pre-BD Peak Flow Observed, Min", "result": 152, "unit": "L/min"},
      {"measurement": "Pre-BD Peak Flow Observed, Q1", "result": 171, "unit": "L/min"},
      {"measurement": "Pre-BD Peak Flow Observed, Q3", "result": 239, "unit": "L/min"},
      {"measurement": "Pre-BD Peak Flow change from baseline, Max", "result": 191, "unit": "L/min"},
      {"measurement": "Pre-BD Peak Flow change from baseline, Mean ± SD", "result": "48.3 ± 98.44", "unit": "L/min"},
      {"measurement": "Pre-BD Peak Flow change from baseline, Median", "result": 18.0, "unit": "L/min"},
      {"measurement": "Pre-BD Peak Flow change from baseline, Min", "result": -34, "unit": "L/min"},
      {"measurement": "Pre-BD Peak Flow change from baseline, Q1", "result": -12, "unit": "L/min"},
      {"measurement": "Pre-BD Peak Flow change from baseline, Q3", "result": 108, "unit": "L/min"}
    ]}
  ]
}
